Consider 19 compounds from EP2951180B1, “2,6,7,8 SUBSTITUTED PURINES AS HDM2 INHIBITORS” (Merck Sharp & Dohme Corp., priority 2013, dated 2014).

Read-outs that look alike come from different tables or passages of the source.

Usually IC50 stands for the point on the concentration scale where inhibition reaches its midpoint.

The target in the experiment is T1, HDM2 (Homo sapiens, UniProt Q00987).
T1 construct: Thioredoxin (N); made in house; host or cells: E. coli strain BL21(DE3)Rosetta
Description: HDM2 FRET assay (inhibition of binding of FITC labeled p53-pocket peptide to HDM2). The conditions noted are these: read-out: FRET IC50. Put shortly:
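TR-FRET with 0.5 nM His-tagged recombinant HDM2, 3 nM FITC-labelled p53 peptide and 0.25 nM Tb-anti-His antibody in PBS, 0.01% BSA, 0.01% Tween-20, 0.1% DMSO. IC50 from em520/em495 ratio over 10-point dilutions, 4-parameter logistic fit.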

The mark [1] stands for this setting: 0.5 nM HDM2 (residues 17 to 125), 3nM peptide, two hour incubation at room temperature.

T1 sequence (Q00987 17-125): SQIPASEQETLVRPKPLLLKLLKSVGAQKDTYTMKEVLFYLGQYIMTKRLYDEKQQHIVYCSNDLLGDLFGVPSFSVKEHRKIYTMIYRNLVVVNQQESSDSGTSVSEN

For `C[C@@H](Nc1nc(-c2noc(=O)[nH]2)nc2nc(C(C)(O)c3nccs3)n(C[C@H]3CC[C@H](C)CC3)c12)C1CCC1` (stereo partly drawn) [Example 22.56, 3-(6-{[(1R)-1-cyclobutylethyl]amino}-8-[1-hydroxy-1-(1,3-thiazol-2-yl)ethyl]-7-[(trans-4-methylcyclohexyl)methyl] -7H-purin-2-yl)-1,2,4-oxadiazol-5(4H)-one], for the setting “Table 22”, the IC50 amounted to 2.45 nM.

Take `C[C@H]1CC[C@H](Cn2c(N3CCOC[C@H]3c3ccccc3F)nc3nc(-c4noc(=O)[nH]4)nc(-c4cncc(Cl)c4)c32)CC1` [Example 16.92, 3-{6-(5-chloropyridin-3-yl)-8-[(3R)-3-(2-fluorophenyl)morpholin-4-yl]-7-[(trans-4-methylcyclohexyl)methyl]-7H-purin-2-yl}-1,2,4-oxadiazol-5(4H)-one]: the IC50 under setting [1] turned out to be 0.585 nM.

`C[C@@H](Nc1nc(-c2noc(=O)[nH]2)nc2nc(N3CCOC4CC43)n(C[C@H]3CC[C@H](C)CC3)c12)C1CCC1` (stereo partly drawn) [Example 11.127, 3-[6-{[(1R)-1-cyclobutylethyl]amino}-7-[(trans-4-methylcyclohexyl)methyl]-8-(2-oxa-5-azabicyclo[4.1.0]hept-5-yl)-7H-purin-2-yl]-1,2,4-oxadiazol-5(4H)-one]: the IC50 (Table 11) stood at 26.2 nM.

With `C[C@@H](Nc1nc(C(=O)O)nc2nc(C3CCCCC3c3ccccc3)n(C[C@H]3CC[C@H](C)CC3)c12)C1CCC1` (stereo partly drawn) [Example 21.17, 6-{[(1R)-1-cyclobutylethyl]amino}-7-[(trans-4-methylcyclohexyl)methyl]-8-(2-phenylcyclohexyl)-7H-purine-2-carboxylic acid], the IC50 (Table 21) was 4.3 nM.

For `CC(C)c1ccnc(-c2nc3nc(-c4nnn[nH]4)nc(N[C@H](C)C4CCC4)c3n2Cc2ccc(C(F)(F)F)cc2)c1` [Example 12.1, N-[(1R)-1-cyclobutylethyl]-8-[4-(propan-2-yl)pyridin-2-yl]-2-(1H-tetrazol-5-yl)-7-[4-(trifluoromethyl)benzyl]-7H-purin-6-amine], the IC50 under setting [1] was 8.35 nM.

On to `C[C@H]1CC[C@H](Cn2c(C3(c4ccccc4F)CC3)nc3nc(-c4noc(=O)[nH]4)nc(-c4cncc(Cl)c4)c32)CC1` [Example 23.100, 3-{6-(5-chloropyridin-3-yl)-8-[1-(2-fluorophenyl)cyclopropyl] -7-[(trans-4-methylcyclohexyl)methyl] -7H-purin-2-yl}-1,2,4-oxadiazol-5(4H)-one], for which, under “Table 23”, the IC50 came to 5.94 nM.

For `CC([C@H]1CC[C@H](C)CC1)n1c(N2CCC[C@H]2CF)nc2nc(-c3noc(=O)[nH]3)nc(-c3cncc(Cl)c3)c21` (single isomer, unassigned) [Example 18.46], the IC50 (Table 18) was found to be 5.49 nM.

On to `C[C@@H](Nc1nc(-c2noc(=O)[nH]2)nc2nc(N3CCOC[C@H]3c3ccccn3)n(C[C@H]3CC[C@H](C)CC3)c12)C1CCC1` [Example 11.142, 3-(6-{[(1R)-1-cyclobutylethyl]amino}-7-[(trans-4-methylcyclohexyl)methyl]-8-[(3R)-3-pyridin-2-ylmorpholin-4-yl]-7H-purin-2-yl)-1,2,4-oxadiazol-5(4H)-one], for which the IC50 (Table 11) came out at 0.774 nM.

As to `C[C@@H](Nc1nc(-c2noc(=O)[nH]2)nc2nc(N3CCCC3Cc3cccnc3)n(Cc3ccc(C(F)(F)F)cc3)c12)C1CCC1` (stereo partly drawn) [Example 9.105, 3-(6-{[(1R)-1-cyclobutylethyl]amino}-8-[2-(pyridin-3-ylmethyl)pyrrolidin-1-yl]-7-[4-(trifluoromethyl)benzyl]-7H-purin-2-yl)-1,2,4-oxadiazol-5(4H)-one], where the note is “Table 9”, the IC50 was 14 nM.

For the compound `C[C@@H](Nc1nc(-c2noc(=O)[nH]2)nc2nc(N3CCCCC3Cc3ccccc3)n(C[C@H]3CC[C@H](C)CC3)c12)C1CCC1` (stereo partly drawn) [Example 11.45, 3-{8-(2-benzylpiperidin-1-yl)-6-{[(1R)-1-cyclobutylethyl]amino}-7-[(trans-4-methylcyclohexyl)methyl]-7H-purin-2-yl}-1,2,4-oxadiazol-5(2H)-one], the IC50 (Table 11) is 81.9 nM.

On to `CC(c1nc2nc(C(=O)O)nc(N[C@H](C)C3CCC3)c2n1Cc1ccc(C(F)(F)F)cc1)N(C)C1CCCCC1` (stereo partly drawn) [Example 10.11, 6-(((R)-1-cyclobutylethyl)amino)-8-(1-(cyclohexyl(methyl)amino)ethyl)-7-(4-(trifluoromethyl)benzyl)-7H-purine-2-carboxylic acid], for which, for the setting “Table 10”, the IC50 was 22.1 nM.

`C[C@H]1CC[C@H](Cn2c(C(=O)C3CCCCC3)nc3nc(-c4noc(=O)[nH]4)nc(-c4cccc(Cl)c4)c32)CC1` [Example 23.6, 3-{6-(3-chlorophenyl)-8-(cyclohexylcarbonyl)-7-[(trans-4-methylcyclohexyl)methyl] -7H-purin-2-yl}-1,2,4-oxadiazol-5(4H)-one]: the IC50 (Table 23) was determined as 13.9 nM.

In the case of `C[C@@H](Nc1nc(C(=O)O)nc2nc(N3CCCC3c3cccc(F)c3)n(C[C@H]3CC[C@H](C)CC3)c12)C1CCC1` (stereo partly drawn) [Example 11.28, 6-{[(1R)-1-cyclobutylethyl]amino}-8-[2-(3-fluorophenyl)pyrrolidin-1-yl]-7-[(trans-4-methylcyclohexyl)methyl]-7H-purine-2-carboxylic acid], where the note is “Table 11”, the IC50 worked out at 1.52 nM.

Turning to `C[C@@H](Nc1nc(-c2noc(=O)[nH]2)nc2nc(N3CCS(=O)(=O)CC3)n(C[C@H]3CC[C@H](C)CC3)c12)C1CCC1` [Example 11.79, 3-(6-{[(1R)-1-cyclobutylethyl]amino}-8-(1,1-dioxidothiomorpholin-4-yl)-7-[(trans-4-methylcyclohexyl)methyl]-7H-purin-2-yl)-1,2,4-oxadiazol-5(2H)-one], for the setting “Table 11”, the IC50 amounted to 33.3 nM.

With `Cc1cccc(-c2nc3nc(C(=O)O)nc(NC4CCCCC4C)c3n2Cc2ccc(Br)cc2)c1` (stereo not shown) [Example 6.10, 7-(4-bromobenzyl)-6-[(2-methylcyclohexyl)amino]-8-(3-methylphenyl)-7H-purine-2-carboxylic acid], the IC50 (Table 6) was 1040 nM.

Take `C[C@@H](Nc1nc(C(=O)O)nc2nc(-c3nccs3)n(C[C@H]3CC[C@H](C)CC3)c12)C1CCC1` [Example 15.11, 6-(((R)-1-cyclobutylethyl)amino)-7-((trans-4-methylcyclohexyl)methyl)-8-(thiazol-2-yl)-7H-purine-2-carboxylic acid]: under setting [1], the IC50 is 2.45 nM.

`Cc1cccc(-c2nc3nc(C(=O)O)nc(NC4CCOCC4)c3n2Cc2ccc(C(F)(F)F)cc2)c1` [Example 6.43, 8-(3-methylphenyl)-6-(tetrahydro-2H-pyran-4-ylamino)-7-[4-(trifluoromethyl)benzyl]-7H-purine-2-carboxylic acid]: the IC50 (Table 6) came to 1710 nM.

Regarding `C[C@@H](Nc1nc(-c2noc(=O)[nH]2)nc2nc(N3CCO[C@H](C)[C@H]3c3ccccc3)n(C[C@H]3CC[C@H](C)CC3)c12)C1CCC1` [Example 11.165, 3-(6-{[(1R)-1-cyclobutylethyl]amino}-7-[(trans-4-methylcyclohexyl)methyl]-8-[(2R,3R)-2-methyl-3-phenylmorpholin-4-yl]-7H-purin-2-yl)-1,2,4-oxadiazol-5(4H)-one], the IC50 (Table 11) came to 0.767 nM.

For `C[C@@H](Nc1nc(-c2noc(=O)[nH]2)nc2nc(C(O)(CO)c3ccccc3)n(C[C@H]3CC[C@H](C)CC3)c12)C1CCC1` (single isomer, unassigned) [Example 22.60], for the setting “Table 22”, the half-maximal inhibitory concentration (IC50) was 113 nM.
